Data set [1] has as its target Cbl-b (Homo sapiens (Human), UniProt Q13191). Nature of the data set: Cbl-b LCK Ub TR-FRET assay (Cbl-b Lck HTRF). It counts as biochemical. An outline of the steps: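 Biotin-Cbl-b preincubated with compound (10-point 3-fold series) 60 min, then His-LCK with 1 mM ATP (2× mixture) added for 90 min at room temperature. Ubiquitination detected by TR-FRET using HA-ubiquitin/UBE2D2 adduct, anti-HA-D2 and streptavidin-Eu; IC50 normalised to no-LCK and DMSO controls.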
On the technique in general: Time-resolved FRET reads energy transfer from a long-lived donor to a nearby acceptor.

The target of data set [2] is c-Cbl (Homo sapiens (Human), UniProt P22681). Nature of the data set: C-Cbl LCK Ub TR-FRET assay (c-cbl Lck HTRF). It counts as biochemical. The settings on record: for (fold-selectivity): C-cbl Lck HTRF IC50 relative to Cbl-b Lck HTRF IC50. An outline of the steps:
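After the ubiquitination reaction, detection mixture was added and plates incubated 20 min at room temperature before reading. IC50 values were calculated with wells lacking LCK as the low control and DMSO as the high control.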

Data set [3] in a line: Liver microsomes metabolic stability, rat. Type of data set: in vitro ADME. The settings on record: 1 μM compound, 0.5 mg/mL microsomal protein. How it is done: (§1) Metabolic stability of test compounds was evaluated in pooled rat, mouse, dog, and cynomolgus monkey liver microsomes (BD Biosciences, San Jose, CA). The incubation conditions were as follows: 1 μM of the tested compound, 1 mM NADPH, 0.5 mg/mL microsomal protein in 0.1 M potassium phosphate buffer (pH 7.4). Following a 5-minute pre-incubation period, the enzymatic reactions were initiated by the addition of NADPH and test compound to the microsomes diluted in phosphate buffered saline. The mixtures were incubated at 37° C. for 0, 20, 40, and 60 min.
(§2) Compound concentrations were assessed by LC-MS/MS. Intrinsic clearance based upon microsomal stability data was determined using a substrate depletion method and scaled to hepatic clearance using the well-stirred model (Obach, R. S.; Baxter, J. G.; Liston, T. E.; Silber, B. M.; Jones, B. C.; Macintyre, F.; Rance, D. J.; Wastall, P., “The Prediction of Human Pharmacokinetic Parameters from Preclinical and in vitro Metabolism Data”, J. Pharmacol. Exp. Ther., (1997), 283 (1), 46-58).
(Liver microsomes are vesicles of endoplasmic reticulum, rich in cytochrome P450 enzymes.)

Data set [4] can be described thus: Liver microsomes metabolic stability, mouse. Type of data set: in vitro ADME. The settings on record: 1 μM compound, 0.5 mg/mL microsomal protein. As for the experimental part: as §1, §2
A short description of data set [5]: Liver microsomes metabolic stability, dog. Type of data set: in vitro ADME. The settings on record: 1 μM compound, 0.5 mg/mL microsomal protein. How it is done:
as §1, §2

The subject of data set [6] is rat hepatocytes. Briefly: Hepatocyte metabolic stability, rat. The settings on record: 1.0 μM compound, 0.5 million cells/mL. It counts as in vitro ADME. How it is done: (§3) Metabolic stability assays of test compounds were evaluated in cryopreserved pooled rat, mouse, dog, and cynomolgus monkey hepatocytes (CellzDirect; Durham, NC, USA). Membrane integrity of the cells was assessed by trypan blue exclusion. Test compounds (1.0 μM with 0.1% dimethylsulfoxide) were incubated with cells (0.5 million cells/mL) at 37° C. in a 95% air/5% CO2 atmosphere for 0, 20, 40, or 60 minutes. Concentrations of test compounds in hepatocyte incubations were determined by LC/MS/MS. Intrinsic clearance was determined using a substrate depletion method and scaled to hepatic clearance using the well-stirred model as described above for the liver microsomes metabolic stability assays.

Data set [7] relates to mouse hepatocytes. Nature of the data set: Hepatocyte metabolic stability, mouse. The settings on record: 1.0 μM compound, 0.5 million cells/mL. It counts as in vitro ADME. As for the experimental part: as §3
Data set [8] in a line: In vivo pharmacokinetics, mouse. Also noted: species or system CD-1 mice. The settings on record: male, CD-1, plasma; for bioavailability: PO 1-5 mg/kg, read-out: Oral Bioavailability (F %); for clearance: single intravenous bolus 0.2-1 mg/kg, read-out: Mouse CL. How it is done: The pharmacokinetics of test compounds were evaluated following a single intravenous bolus (IV) of solution at a dose of 0.2-1 mg/kg and oral administration (PO) of solution/suspension at doses of 1-5 mg/kg in male cynomolgus monkey, beagle dogs, Sprague Dawley rats, or CD-1 mice using a parallel study design. Blood samples for the IV dose group were collected prior to administration (predose) and at 0.033, 0.083, 0.25, 0.5, 1, 3, 6, 9 and 24 hours post dose. Blood samples for PO dose groups were collected prior to administration (predose) and at 0.083, 0.25, 0.5, 1, 3, 6, 9 and 24 hours post dose. For the IV group, urine was collected from each animal at predose and from 0-6 and 6-24 hours post dose. The vehicle used for IV dose groups was a combination of PEG400 with citrate buffer (pH 5.0) or PEG400/Cremphor with DMSO/H2O, and for PO groups was MCT.
Plasma and urine concentrations were quantitated at Genentech Inc. using a non-validated LC/MS/MS method. The lower limit of quantitation (LLOQ) of the plasma and urine assays was 0.005 μM. PK parameters were determined by non-compartmental methods using WinNonlin (version 5.2, Pharsight Corporation, Mountain View, CA).

For orientation: IC50 means the concentration that inhibits the measured activity by half. Higher therefore signals weaker potency in that assay. What is called bioavailability is dose-corrected exposure relative to a reference, in per cent.

Chain of Cbl-b (Q13191 40-426): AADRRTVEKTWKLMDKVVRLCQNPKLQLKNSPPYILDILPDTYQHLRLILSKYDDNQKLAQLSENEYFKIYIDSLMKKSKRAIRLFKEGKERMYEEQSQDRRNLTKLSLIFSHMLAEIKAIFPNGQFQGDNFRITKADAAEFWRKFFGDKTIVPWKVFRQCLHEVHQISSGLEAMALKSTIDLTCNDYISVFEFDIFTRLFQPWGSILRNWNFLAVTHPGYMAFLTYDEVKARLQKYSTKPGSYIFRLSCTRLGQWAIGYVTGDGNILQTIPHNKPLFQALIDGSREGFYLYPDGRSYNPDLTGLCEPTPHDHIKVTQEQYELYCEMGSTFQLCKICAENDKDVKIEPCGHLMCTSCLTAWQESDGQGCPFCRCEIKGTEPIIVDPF
Chain of c-Cbl (P22681 47-435): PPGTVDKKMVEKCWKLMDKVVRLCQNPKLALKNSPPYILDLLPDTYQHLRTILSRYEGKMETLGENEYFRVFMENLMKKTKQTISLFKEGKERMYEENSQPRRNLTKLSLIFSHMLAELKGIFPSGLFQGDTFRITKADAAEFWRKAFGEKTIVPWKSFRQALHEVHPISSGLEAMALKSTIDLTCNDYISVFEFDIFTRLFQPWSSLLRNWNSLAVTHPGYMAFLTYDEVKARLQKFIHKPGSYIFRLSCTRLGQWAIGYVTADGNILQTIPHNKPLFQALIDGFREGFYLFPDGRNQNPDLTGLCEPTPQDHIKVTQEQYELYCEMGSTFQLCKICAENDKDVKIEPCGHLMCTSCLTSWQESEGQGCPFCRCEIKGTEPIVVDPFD

Regarding `Cn1cnnc1[C@H](F)C1(c2cccc(N3Cc4c(cc(CN)cc4C(F)(F)F)C3=O)c2)COC1` [Compound 68, (R)-6-(aminomethyl)-2-(3-(3-(fluoro(4-methyl-4H-1,2,4-triazol-3-yl)methyl)oxetan-3-yl)phenyl)-4-(trifluoromethyl)isoindolin-1-one], the results for the concentration for half-maximal inhibition (IC50) in data set [1] and in data set [2] were 79 nM and 110 nM, respectively. Further, in data set [2], the “(fold-selectivity)” value stood at 1.3x. In addition, the “Liver microsomes Pred. CLhep (mL/min/kg) Rat/Mouse/Dog” value in data set [3] turned out to be 6 mL/min/kg; in data set [4], 14 mL/min/kg; in data set [5] it was 12 mL/min/kg. For the same molecule, the “Hepatocyte Pred. CLhep (mL/min/kg) Rat/Mouse/Dog” value in data set [6] came to 19 mL/min/kg; in data set [7] it was 37 mL/min/kg.
`Cn1cnnc1[C@H](F)C1(c2cccc(N3Cc4c(cc(CN5CCC5)cc4C(F)(F)F)C3=O)c2)COC1` [Compound 70, (R)-6-(azetidin-1-ylmethyl)-2-(3-(3-(fluoro(4-methyl-4H-1,2,4-triazol-3-yl)methyl)oxetan-3-yl)phenyl)-4-(trifluoromethyl)isoindolin-1-one]: half-maximal inhibition in data set [1] (IC50) was put at 110 nM. Moreover, in data set [2], the midpoint of inhibition, the IC50, lay at 210 nM and the “(fold-selectivity)” value is 1.9x. Further, in data set [8], the bioavailability came out at 2% and the clearance came out at 44 mL/min/kg.
Consider `Cn1cnnc1[C@H](F)C1(c2cccc(N3Cc4c(cc(CN5CC(C)(CO)C5)cc4C(F)(F)F)C3=O)c2)COC1` [Compound 74, (R)-2-(3-(3-(fluoro(4-methyl-4H-1,2,4-triazol-3-yl)methyl)oxetan-3-yl)phenyl)-6((3-(hydroxymethyl)-3-methylazetidin-1-yl)methyl)-4-(trifluoromethyl)isoindolin-1-one], for which the IC50 was 57 nM in data set [1] and 120 nM in data set [2]. Also, the “(fold-selectivity)” value in data set [2] came to 2.2x. Also, the results for the “Liver microsomes Pred. CLhep (mL/min/kg) Rat/Mouse/Dog” value in data set [3], in data set [4] and in data set [5] were 15 mL/min/kg, 37 mL/min/kg and 19 mL/min/kg, respectively. Besides, the results for the “Hepatocyte Pred. CLhep (mL/min/kg) Rat/Mouse/Dog” value in data set [6] and in data set [7] were 11 mL/min/kg and 35 mL/min/kg, respectively.
Regarding `Cn1cnnc1[C@H](F)C1(c2cccc(N3Cc4c(cc(CN5CC6CC5C6)cc4C(F)(F)F)C3=O)c2)COC1` [Compound 86, (R)-6-((2-azabicyclo[2.1.1]hexan-2-yl)methyl)-2-(3-(3-(fluoro(4-methyl-4H-1,2,4-triazol-3-yl)methyl)oxetan-3-yl)phenyl)-4-(trifluoromethyl)isoindolin-1-one], the IC50 in data set [1] is 130 nM; in data set [2], 270 nM. Moreover, the “(fold-selectivity)” value in data set [2] amounted to 2.1x. Also, the “Liver microsomes Pred. CLhep (mL/min/kg) Rat/Mouse/Dog” value in data set [3] is listed as 7 mL/min/kg; in data set [4], 27 mL/min/kg; in data set [5] it was 14 mL/min/kg. The “Hepatocyte Pred. CLhep (mL/min/kg) Rat/Mouse/Dog” value is recorded as 12 mL/min/kg in data set [6] and 36 mL/min/kg in data set [7]. Moreover, in data set [8], the bioavailability stood at 2%. Besides, the clearance in data set [8] was 40 mL/min/kg.
Turning to `CC(C)[C@H]1CN(C)CCN1Cc1cc2c(c(C(F)(F)F)c1)CN(c1cccc(C3([C@@H](F)c4nncn4C)COC3)c1)C2=O` [Compound 187, 2-(3-(3-((R)-fluoro(4-methyl-4H-1,2,4-triazol-3-yl)methyl)oxetan-3-yl)phenyl)-6-(((S)-2-isopropyl-4-methylpiperazin-1-yl)methyl)-4-(trifluoromethyl)isoindolin-1-one], the midpoint of inhibition in data set [1], the IC50, lay at 11 nM. Moreover, in data set [2], the IC50 turned out to be 13 nM and the “(fold-selectivity)” value is listed as 1.1x. In data set [8], the bioavailability was determined as 13% and the clearance is 42 mL/min/kg.
`CC(C)[C@H]1CN(C)CCN1Cc1cc2c(c(C(F)(F)F)c1)CN(c1cccc(C3([C@@H](F)c4nncn4C)CC(F)(F)C3)c1)C2=O` [Compound 189, 2-(3-(3,3-difluoro-1-((R)-fluoro(4-methyl-4H-1,2,4-triazol-3-yl)methyl)cyclobutyl)phenyl)-6-(((S)-2-isopropyl-4-methylpiperazin-1-yl)methyl)-4-(trifluoromethyl)isoindolin-1-one]: the IC50 in data set [1] came to 12 nM. Further, in data set [2], half-maximal inhibition (IC50) was put at 11 nM and the “(fold-selectivity)” value amounted to 0.95x. For the same molecule, in data set [8], the bioavailability is 21% and the clearance came out at 34 mL/min/kg.
In data set [1], `C[C@@H]1COCCN1c1cc(C2(Cc3nncn3C)COC2)cc(N2Cc3c(cccc3C(F)(F)F)C2=O)n1` [Compound 490, (R)-2-(4-(3-((4-methyl-4H-1,2,4-triazol-3-yl)methyl)oxetan-3-yl)-6-(3-methylmorpholino)pyridin-2-yl)-4-(trifluoromethyl)isoindolin-1-one] registered an IC50 of 3300 nM. Moreover, in data set [2], the midpoint of inhibition, the IC50, lay at 3500 nM and the “(fold-selectivity)” value was “(1.0x)”.
On to `Cn1cnnc1CC1(c2cc(NCC(N)=O)nc(N3Cc4c(cccc4C(F)(F)F)C3=O)c2)COC1` [Compound 491, 2-((4-(3-((4-methyl-4H-1,2,4-triazol-3-yl)methyl)oxetan-3-yl)-6-(1-oxo-4-(trifluoromethyl)isoindolin-2-yl)pyridin-2-yl)amino)acetamide], for which, in data set [1], 8600 nM corresponded to half-maximal inhibition (IC50). In data set [2], the IC50 came out at 20000 nM and the “(fold-selectivity)” value is “(2.3x)”.
On the same counts, the results for `CC1(NCc2cc3c(c(C(F)(F)F)c2)CN(c2cccc(C4(Cc5nncn5C5CC5)CC(F)(F)C4)c2)C3=O)CCC1` [Compound 492, 2-(3-(1-((4-cyclopropyl-4H-1,2,4-triazol-3-yl)methyl)-3,3-difluorocyclobutyl)phenyl)-6-(((1-methylcyclobutyl)amino)methyl)-4-(trifluoromethyl)isoindolin-1-one] are 57 nM, 60 nM and “(1.0x)”.
The like results for `Cn1cnnc1CC1(c2cc(NC34CCC(C3)C4)nc(N3Cc4c(cccc4C(F)(F)F)C3=O)c2)COC1` [Compound 493, 2-(6-(bicyclo[2.1.1]hexan-1-ylamino)-4-(3-((4-methyl-4H-1,2,4-triazol-3-yl)methyl)oxetan-3-yl)pyridin-2-yl)-4-(trifluoromethyl)isoindolin-1-one] were, in that order, 630 nM, 4500 nM and “(6.9x)”.
As for `Cn1cnnc1[C@H](F)C1(c2cccc(N3Cc4c(cc(CNC5(C)CCC5)cc4C(F)(F)F)C3=O)c2)COC1` [Compound 494, (R)-2-(3-(3-(fluoro(4-methyl-4H-1,2,4-triazol-3-yl)methyl)oxetan-3-yl)phenyl)-6-(((1-methylcyclobutyl)amino)methyl)-4-(trifluoromethyl)isoindolin-1-one], the IC50 in data set [1] was 13 nM; in data set [2], 12 nM. In data set [2], the “(fold-selectivity)” value is recorded as “(0.94x)”.

Source of the values: patent US20250230147A1, “LACTAMS AS CBL-B INHIBITORS” (Genentech, Inc., priority 2021, published 2025).
